Source: article PMC12027992, “New Amidino-Substituted Benzimidazole Derivatives as Human Dipeptidyl Peptidase III Inhibitors: Synthesis, In Vitro Evaluation, QSAR, and Molecular Docking Studies” (International Journal of Molecular Sciences, 2025)
Values joined by “and” are separate entries in the source; they are usually repeats but may differ in a detail not shown here. Identical values can stand only once. Counter-ions that a name gives are not always drawn. Residues, ends and D or L forms follow the SMILES beside them.

Assays:
human DPP III = target: T1, human DPP III (Homo sapiens, UniProt Q9NY33); assay: hDPP III enzyme activity assay (% inhibition and IC50), substrate Arg-Arg-2-naphthylamide; assay type: biochemical; conditions: for IC50: at least seven concentrations, nonlinear regression, three replicates; for log % inh. exp.: logarithm of % inhibition at 30 μmol L^–1; for inhibition at 30 µM: pH 7.4, 30 μmol L^–1 compound, recombinant hDPP III 0.75 nM, Arg-Arg-2-naphthylamide 40 μM, pH 7.4, 37 °C, average of three determinations ± SD
T1 construct: C-terminally truncated human DPP III was expressed and purified as described previously; His-tag (TEV-cleavable) (C, cleaved yes); made in house; host or cells: E. coli BL21-CodonPlus (DE3)-RIL
T1 sequence (Q9NY33 1-726 limits assumed): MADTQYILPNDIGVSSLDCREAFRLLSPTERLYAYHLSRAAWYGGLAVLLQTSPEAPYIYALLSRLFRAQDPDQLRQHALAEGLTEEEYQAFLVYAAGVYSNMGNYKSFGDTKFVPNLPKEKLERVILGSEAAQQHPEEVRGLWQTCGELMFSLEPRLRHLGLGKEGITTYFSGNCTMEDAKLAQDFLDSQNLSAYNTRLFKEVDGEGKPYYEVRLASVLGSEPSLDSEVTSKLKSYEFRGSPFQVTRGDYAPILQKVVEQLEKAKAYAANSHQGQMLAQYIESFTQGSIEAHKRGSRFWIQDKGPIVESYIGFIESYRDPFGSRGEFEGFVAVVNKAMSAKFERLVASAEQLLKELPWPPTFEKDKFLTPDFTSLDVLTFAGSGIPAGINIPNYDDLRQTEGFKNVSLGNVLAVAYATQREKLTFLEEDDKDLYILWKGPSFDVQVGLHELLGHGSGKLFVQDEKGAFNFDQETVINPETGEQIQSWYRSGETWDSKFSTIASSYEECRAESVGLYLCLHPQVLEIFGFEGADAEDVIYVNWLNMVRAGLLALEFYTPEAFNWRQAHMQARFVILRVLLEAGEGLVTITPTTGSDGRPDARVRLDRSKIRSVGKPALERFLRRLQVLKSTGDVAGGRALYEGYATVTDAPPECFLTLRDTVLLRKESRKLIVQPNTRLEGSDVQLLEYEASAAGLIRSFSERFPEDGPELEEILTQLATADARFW
Protocol: C-terminally truncated human DPP III was expressed and purified as described previously. In brief, C-terminal HIS-tagged recombinant human DPP III was expressed in E. coli BL21-CodonPlus (DE3)-RIL cells, Agilent (Santa Clara, CA, USA). Overexpression was induced by 0.25 mM isopropyl-b-D-1-thiogalactopyranoside (IPTG, Fermentas), and the cells were grown for 20 h at 18 °C and 130 rpm. Obtained bacterial cells were lysed by a combination of lysozyme lysis and sonication, then treated with DNase I and centrifuged at 4000× g for 15 min to precipitate the cell debris. The lysate was purified by affinity chromatography on a Ni-NTA column (5 mL prepacked His-trap FF) GE Healthcare (Chicago, IL, USA) using a buffer system with 50 mM Tris- HCl, pH = 8.0, 300 mM NaCl, and increasing imidazole concentrations: 10 mM for lysis, 20 mM for wash, and 300 mM for elution buffer. All hDPP III active fractions were pooled and incubated with TEV protease to remove the HIS-tag. Human DPP III was recovered using flow-through affinity chromatography (TEV protease is His-tagged), and additionally purified on a 16/60 Superdex-200 gel-filtration column GE Healthcare (Chicago, IL, USA). Fractions with hDPP III were desalted on PD-10 columns GE Healthcare (Chicago, IL, USA). Purified protein in 20 mM Tris-HCl buffer pH = 7.4 was stored at -80 °C until use. Recombinant hDPP III (0.75 nM) was preincubated with benzimidazole derivatives (30 μM) first for 10 min at 25 °C and then for 5 min at 37 °C in 50 mM Tris-HCl buffer, pH 7.4. The enzymatic reaction was started with Arg-[…]-naphthylamide (40 μM) as a substrate, and after the 15 min incubation at 37 °C in a water bath, the reaction was stopped, and the absorbance was measured using the spectrophotometric method described by Abramić et al.. All benzimidazole derivatives were prepared daily in dimethyl sulfoxide, and the resulting stock solutions (4 mM) were transparent, without turbidity or solid residue. […] Before the enzyme assay, stock solutions were diluted with 50 mM Tris-HCl buffer, pH 7.4. […] The percentage of enzyme inhibition under at least seven different concentration gradients was imported into GraphPad Prism 10.4.1 software to calculate IC50 values of the compounds using nonlinear regression analysis from the mean inhibitory value of three replicates. The relative occupancy of inhibition for compounds with the same substituent at position 6 of the benzimidazole core was defined as the sum of their % inh., expressed relative to their maximum achievable inhibition, which was set at 100.

hDPP III = target: hDPP III; parameters: method as in PMID 18163885; conditions: read-out: inhibition constant (Ki); cited from earlier work
MCF-7 = tested on: MCF-7; parameters: method as in doi:10.5562/cca3531; conditions: cited from earlier work
HCT116 = tested on: HCT116; parameters: method as in doi:10.5562/cca3531; conditions: cited from earlier work
H460 = tested on: H460; parameters: method as in doi:10.5562/cca3531; conditions: cited from earlier work

Structure (SMILES) | IC50 (human DPP III) | log % inh. exp. (human DPP III) | inhibition at 30 µM (human DPP III) [%] | Ki (hDPP III) [µM] | antiproliferative activity (MCF-7) | antiproliferative activity (HCT116) | antiproliferative activity (H460)
Oc1ccc(-c2nc3ccc(C4=NCCN4)cc3[nH]2)c(O)c1O [b13, 5(6)-(4,5-Dihydro-1H-imidazol-3-ium-2-yl)-2-(2,3,4-trihydroxyphenyl)benzimidazole chloride] | < 20 µM and 1.03 µM | 2.00 | ≥ 90 |  |  |  | 
N[C@@H](Cc1ccc(O)cc1)C(=O)N[C@@H](Cc1ccccc1)C(=O)NO [Tyr-Phe-NHOH] (HELM PEPTIDE1{Y.F.[ON[*:1]]}$$$$V2.0) |  |  |  | 0.15 ± 0.04 |  |  | 
CCN(CC)c1ccc(-c2nc3ccc(C(=N)N)cc3[nH]2)c(O)c1 [a2, 5(6)-amidino-2-[4-(N,N-diethylamino)-2-hydroxyphenyl]benzimidazole hydrochloride] | < 20 µM and 8.44 µM | 2.00 | ≥ 90 |  |  |  | 
c1csc(-c2ccc(-c3nc4ccc(C5=NCCN5)cc4[nH]3)s2)c1 [b4] | < 20 µM and 4.98 µM | 2.00 | ≥ 90 |  |  |  | 
c1ccc2c(c1)cc(-c1nc3cc(C4=NCCN4)ccc3[nH]1)c1ccccc12 [b2, 5(6)-(2-imidazolinyl)-2-(phenanthren-9-yl)-1H-benzo[d]imidazole] | < 20 µM and 11.1 µM | 2.00 | ≥ 90 |  |  |  | 
c1ccc2c(c1)cc(-c1nc3cc(C4=NCCCN4)ccc3[nH]1)c1ccccc12 [c8] |  | 1.71 | 51.7 ± 0.2 |  |  |  | 

The next lines start with results.

IC50 (human DPP III) | log % inh. exp. (human DPP III) | inhibition at 30 µM (human DPP III) [%] | Structure (SMILES) | Ki (hDPP III) [µM] | antiproliferative activity (MCF-7) | antiproliferative activity (HCT116) | antiproliferative activity (H460)
< 20 µM and 9.83 µM | 1.99 | ≥ 90 | N=C(N)c1ccc2nc(-c3ccc(C(F)(F)F)cc3)[nH]c2c1 [a6] |  | displayed antiproliferative activity | displayed antiproliferative activity | displayed antiproliferative activity
< 20 µM and 8.34 µM | 2.00 | ≥ 90 | N=C(N)c1ccc2nc(-c3ccc(-c4cccs4)s3)[nH]c2c1 [a4] |  |  |  | 
< 20 µM and 8.18 µM | 2.00 | ≥ 90 | FC(F)(F)c1ccc(-c2nc3ccc(C4=NCCN4)cc3[nH]2)cc1 [b6] |  | displayed antiproliferative activity | displayed antiproliferative activity | displayed antiproliferative activity
